Data reported in ChEMBL document CHEMBL4507283, “Data for DCP probe BI-1935” (2021).

What was measured:
[1] = target: Serotonin 1 (5-HT1) receptor (Rattus norvegicus) (UniProt P28564+P30940+P19327+P28565); assay: 5HT1/R Eurofins-Panlabs selectivity data (BI); format: protein assay; conditions: Compound concentration 10.0 uM
[2] = target: Adrenergic receptor alpha-2 (Rattus norvegicus) (UniProt P22086+P19328+P22909); assay: ALPHA2/R Eurofins-Panlabs selectivity data (BI); format: protein assay; conditions: Compound concentration 10.0 uM
[3] = target: Prostaglandin G/H synthase 2 (Homo sapiens) (UniProt P35354); assay: COX-2 Eurofins-Panlabs selectivity data (BI); conditions: Compound concentration 10.0 uM
[4] = target: Nitric oxide synthase 3 (Bos taurus) (UniProt P29473); assay: ENOS_MDS Eurofins-Panlabs selectivity data (BI); conditions: Compound concentration 10.0 uM
[5] = target: Histamine H2 receptor (Homo sapiens) (UniProt P25021); assay: H2/H Eurofins-Panlabs selectivity data (BI); conditions: Compound concentration 10.0 uM
[6] = target: ATP-sensitive inward rectifier potassium channel 1 isoform X1 (Mesocricetus auratus) (UniProt A0A1U8CU73); assay: K+/KATP/HA Eurofins-Panlabs selectivity data (BI); conditions: Compound concentration 10.0 uM
[7] = test system: Tyrosine-protein kinase ABL1 (Homo sapiens), P00519 [F317L]; conditions: Compound concentration 1000.0 nM
[8] = test system: Tyrosine-protein kinase ABL1 (Homo sapiens), P00519 [Q252H]; conditions: Compound concentration 1000.0 nM
[9] = target: Bone morphogenetic protein receptor type-2 (Homo sapiens) (UniProt Q13873); conditions: Compound concentration 1000.0 nM
[10] = target: Cytoplasmic tyrosine-protein kinase BMX (Homo sapiens) (UniProt P51813); conditions: Compound concentration 1000.0 nM
[11] = target: Calcium/calmodulin-dependent protein kinase type 1G (Homo sapiens) (UniProt Q96NX5); conditions: Compound concentration 1000.0 nM
[12] = target: Cyclin-dependent kinase 4 (Homo sapiens) (UniProt P11802); conditions: Compound concentration 1000.0 nM
[13] = target: Cyclin-dependent kinase 8 (Homo sapiens) (UniProt P49336); conditions: Compound concentration 1000.0 nM
[14] = target: Citron Rho-interacting kinase (Homo sapiens) (UniProt O14578); conditions: Compound concentration 1000.0 nM
[15] = target: Death-associated protein kinase 2 (Homo sapiens) (UniProt Q9UIK4); conditions: Compound concentration 1000.0 nM
[16] = target: Serine/threonine-protein kinase DCLK2 (Homo sapiens) (UniProt Q8N568); conditions: Compound concentration 1000.0 nM
[17] = target: Discoidin domain-containing receptor 2 (Homo sapiens) (UniProt Q16832); conditions: Compound concentration 1000.0 nM
[18] = target: Dual specificity tyrosine-phosphorylation-regulated kinase 1B (Homo sapiens) (UniProt Q9Y463); conditions: Compound concentration 1000.0 nM
[19] = target: Dual specificity tyrosine-phosphorylation-regulated kinase 2 (Homo sapiens) (UniProt Q92630); conditions: Compound concentration 1000.0 nM
[20] = test system: Epidermal growth factor receptor (Homo sapiens), P00533 [G719S]; conditions: Compound concentration 1000.0 nM
[21] = target: Ephrin type-A receptor 4 (Homo sapiens) (UniProt P54764); conditions: Compound concentration 1000.0 nM
[22] = target: Vascular endothelial growth factor receptor 3 (Homo sapiens) (UniProt P35916); conditions: Compound concentration 1000.0 nM
[23] = target: Homeodomain-interacting protein kinase 1 (Homo sapiens) (UniProt Q86Z02); conditions: Compound concentration 1000.0 nM
[24] = target: Interleukin-1 receptor-associated kinase 3 (Homo sapiens) (UniProt Q9Y616); conditions: Compound concentration 1000.0 nM
[25] = target: Mitogen-activated protein kinase 9 (Homo sapiens) (UniProt P45984); conditions: Compound concentration 1000.0 nM
[26] = target: LIM domain kinase 2 (Homo sapiens) (UniProt P53671); conditions: Compound concentration 1000.0 nM
[27] = test system: Leucine-rich repeat serine/threonine-protein kinase 2 (Homo sapiens), Q5S007 [G2019S]; conditions: Compound concentration 1000.0 nM
[28] = target: Mitogen-activated protein kinase kinase kinase 1 (Homo sapiens) (UniProt Q13233); conditions: Compound concentration 1000.0 nM
[29] = test system: Hepatocyte growth factor receptor (Homo sapiens), P08581 [M1250T]; conditions: Compound concentration 1000.0 nM
[30] = target: Serine/threonine-protein kinase Nek6 (Homo sapiens) (UniProt Q9HC98); conditions: Compound concentration 1000.0 nM
[31] = target: Platelet-derived growth factor receptor alpha (Homo sapiens) (UniProt P16234); conditions: Compound concentration 1000.0 nM
[32] = target: Serine/threonine-protein kinase PLK1 (Homo sapiens) (UniProt P53350); conditions: Compound concentration 1000.0 nM
[33] = target: Protein kinase C eta type (Homo sapiens) (UniProt P24723); conditions: Compound concentration 1000.0 nM
[34] = target: Protein kinase C iota type (Homo sapiens) (UniProt P41743); conditions: Compound concentration 1000.0 nM
[35] = target: Serine/threonine-protein kinase D3 (Homo sapiens) (UniProt O94806); conditions: Compound concentration 1000.0 nM
[36] = target: cGMP-dependent protein kinase 2 (Homo sapiens) (UniProt Q13237); conditions: Compound concentration 1000.0 nM
[37] = target: Rho-associated protein kinase 1 (Homo sapiens) (UniProt Q13464); conditions: Compound concentration 1000.0 nM
[38] = target: Testis-specific serine/threonine-protein kinase 1 (Homo sapiens) (UniProt Q9BXA7); conditions: Compound concentration 1000.0 nM
[39] = target: Phosphatidylinositol 3-kinase catalytic subunit type 3 (Homo sapiens) (UniProt Q8NEB9); conditions: Compound concentration 1000.0 nM
[40] = target: 5-hydroxytryptamine receptor 1D (Homo sapiens) (UniProt P28221); conditions: Compound concentration 10.0 uM
[41] = target: 5-hydroxytryptamine receptor 1E (Homo sapiens) (UniProt P28566); conditions: Compound concentration 10.0 uM
[42] = target: D(2) dopamine receptor (Homo sapiens) (UniProt P14416); conditions: Compound concentration 10.0 uM
[43] = target: Histamine H4 receptor (Homo sapiens) (UniProt Q9H3N8); conditions: Compound concentration 10.0 uM

Homeodomain-interacting protein kinase 1 (Homo sapiens), sequence (Q86Z02 whole entry, looked up): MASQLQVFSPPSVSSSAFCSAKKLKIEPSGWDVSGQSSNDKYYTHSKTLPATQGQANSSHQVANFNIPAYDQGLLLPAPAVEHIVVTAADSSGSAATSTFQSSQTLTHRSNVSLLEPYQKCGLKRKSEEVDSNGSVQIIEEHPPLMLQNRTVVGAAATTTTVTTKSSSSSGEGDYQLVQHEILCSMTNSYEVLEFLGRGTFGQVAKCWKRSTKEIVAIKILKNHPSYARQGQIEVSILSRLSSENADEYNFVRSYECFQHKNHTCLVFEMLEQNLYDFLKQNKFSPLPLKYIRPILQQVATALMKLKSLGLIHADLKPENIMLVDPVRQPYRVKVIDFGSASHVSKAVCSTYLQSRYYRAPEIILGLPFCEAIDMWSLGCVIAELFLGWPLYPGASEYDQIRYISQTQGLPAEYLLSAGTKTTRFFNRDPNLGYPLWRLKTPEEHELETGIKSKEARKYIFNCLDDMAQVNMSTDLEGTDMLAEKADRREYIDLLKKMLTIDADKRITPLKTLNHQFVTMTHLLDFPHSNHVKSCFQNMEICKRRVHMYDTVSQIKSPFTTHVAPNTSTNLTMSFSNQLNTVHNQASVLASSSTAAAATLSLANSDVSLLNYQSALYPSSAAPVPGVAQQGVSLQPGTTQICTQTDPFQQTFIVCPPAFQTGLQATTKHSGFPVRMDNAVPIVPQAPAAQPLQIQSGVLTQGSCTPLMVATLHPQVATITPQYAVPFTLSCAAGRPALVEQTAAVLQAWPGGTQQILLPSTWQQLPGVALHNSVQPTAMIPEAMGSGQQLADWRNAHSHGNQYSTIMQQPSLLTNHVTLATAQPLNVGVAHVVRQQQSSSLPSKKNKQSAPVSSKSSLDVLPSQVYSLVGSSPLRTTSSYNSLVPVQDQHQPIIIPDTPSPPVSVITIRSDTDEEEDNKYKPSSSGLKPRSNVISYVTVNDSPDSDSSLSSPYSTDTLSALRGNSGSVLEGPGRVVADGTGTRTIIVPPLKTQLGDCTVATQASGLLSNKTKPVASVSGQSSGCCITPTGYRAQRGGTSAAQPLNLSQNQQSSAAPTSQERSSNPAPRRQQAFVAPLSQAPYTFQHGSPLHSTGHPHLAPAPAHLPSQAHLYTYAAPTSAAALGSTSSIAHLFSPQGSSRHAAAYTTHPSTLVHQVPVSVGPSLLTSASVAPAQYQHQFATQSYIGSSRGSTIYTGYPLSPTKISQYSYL
Death-associated protein kinase 2 (Homo sapiens), sequence (Q9UIK4 whole entry, looked up): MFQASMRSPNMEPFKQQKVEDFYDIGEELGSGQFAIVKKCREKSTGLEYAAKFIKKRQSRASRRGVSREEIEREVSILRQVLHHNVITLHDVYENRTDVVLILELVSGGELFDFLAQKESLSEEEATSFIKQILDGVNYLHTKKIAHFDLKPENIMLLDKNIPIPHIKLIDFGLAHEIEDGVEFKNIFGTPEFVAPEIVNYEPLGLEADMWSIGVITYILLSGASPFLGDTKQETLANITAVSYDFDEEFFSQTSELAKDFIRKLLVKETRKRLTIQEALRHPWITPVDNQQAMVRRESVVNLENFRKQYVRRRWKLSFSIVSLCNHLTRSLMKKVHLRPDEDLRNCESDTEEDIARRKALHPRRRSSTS
ATP-sensitive inward rectifier potassium channel 1 isoform X1 (Mesocricetus auratus), sequence (A0A1U8CU73 as listed by the source): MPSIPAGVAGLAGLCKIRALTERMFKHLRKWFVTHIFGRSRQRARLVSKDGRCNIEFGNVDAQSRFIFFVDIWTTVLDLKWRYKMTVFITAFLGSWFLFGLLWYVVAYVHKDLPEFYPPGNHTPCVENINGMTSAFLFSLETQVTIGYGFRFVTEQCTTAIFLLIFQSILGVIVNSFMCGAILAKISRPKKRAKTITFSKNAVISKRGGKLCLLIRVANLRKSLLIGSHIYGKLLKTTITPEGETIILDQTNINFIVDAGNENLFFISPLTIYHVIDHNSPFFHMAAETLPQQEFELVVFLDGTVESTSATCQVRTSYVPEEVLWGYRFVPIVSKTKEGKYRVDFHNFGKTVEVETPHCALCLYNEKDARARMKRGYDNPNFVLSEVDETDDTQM
Bone morphogenetic protein receptor type-2 (Homo sapiens), sequence (Q13873 whole entry): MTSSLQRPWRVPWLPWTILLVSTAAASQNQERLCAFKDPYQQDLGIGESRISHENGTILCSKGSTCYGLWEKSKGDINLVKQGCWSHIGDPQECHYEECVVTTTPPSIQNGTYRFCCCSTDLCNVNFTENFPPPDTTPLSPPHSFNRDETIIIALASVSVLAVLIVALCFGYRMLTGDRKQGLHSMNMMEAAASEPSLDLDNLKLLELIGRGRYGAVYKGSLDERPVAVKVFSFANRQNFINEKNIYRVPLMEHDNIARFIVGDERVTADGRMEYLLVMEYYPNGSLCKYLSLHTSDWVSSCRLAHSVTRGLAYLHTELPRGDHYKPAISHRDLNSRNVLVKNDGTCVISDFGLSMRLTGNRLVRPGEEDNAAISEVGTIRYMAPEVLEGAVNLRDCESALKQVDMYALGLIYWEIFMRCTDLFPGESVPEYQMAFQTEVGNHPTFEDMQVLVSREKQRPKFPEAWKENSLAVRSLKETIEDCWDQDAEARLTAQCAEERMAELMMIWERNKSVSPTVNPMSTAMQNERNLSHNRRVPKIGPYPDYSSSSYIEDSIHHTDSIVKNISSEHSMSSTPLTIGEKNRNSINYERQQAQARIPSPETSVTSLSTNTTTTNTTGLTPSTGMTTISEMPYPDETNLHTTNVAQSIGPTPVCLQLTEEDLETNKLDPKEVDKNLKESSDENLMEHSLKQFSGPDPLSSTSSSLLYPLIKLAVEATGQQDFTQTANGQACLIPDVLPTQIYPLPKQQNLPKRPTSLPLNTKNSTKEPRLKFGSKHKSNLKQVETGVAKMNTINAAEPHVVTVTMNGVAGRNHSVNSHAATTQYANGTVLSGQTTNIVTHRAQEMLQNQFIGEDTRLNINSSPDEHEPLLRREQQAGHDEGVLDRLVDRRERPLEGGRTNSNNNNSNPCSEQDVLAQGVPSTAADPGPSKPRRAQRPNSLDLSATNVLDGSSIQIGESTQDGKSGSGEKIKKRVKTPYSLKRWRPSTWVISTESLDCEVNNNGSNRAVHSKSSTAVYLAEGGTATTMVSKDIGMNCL
Serine/threonine-protein kinase PLK1 (Homo sapiens), sequence (P53350 whole entry): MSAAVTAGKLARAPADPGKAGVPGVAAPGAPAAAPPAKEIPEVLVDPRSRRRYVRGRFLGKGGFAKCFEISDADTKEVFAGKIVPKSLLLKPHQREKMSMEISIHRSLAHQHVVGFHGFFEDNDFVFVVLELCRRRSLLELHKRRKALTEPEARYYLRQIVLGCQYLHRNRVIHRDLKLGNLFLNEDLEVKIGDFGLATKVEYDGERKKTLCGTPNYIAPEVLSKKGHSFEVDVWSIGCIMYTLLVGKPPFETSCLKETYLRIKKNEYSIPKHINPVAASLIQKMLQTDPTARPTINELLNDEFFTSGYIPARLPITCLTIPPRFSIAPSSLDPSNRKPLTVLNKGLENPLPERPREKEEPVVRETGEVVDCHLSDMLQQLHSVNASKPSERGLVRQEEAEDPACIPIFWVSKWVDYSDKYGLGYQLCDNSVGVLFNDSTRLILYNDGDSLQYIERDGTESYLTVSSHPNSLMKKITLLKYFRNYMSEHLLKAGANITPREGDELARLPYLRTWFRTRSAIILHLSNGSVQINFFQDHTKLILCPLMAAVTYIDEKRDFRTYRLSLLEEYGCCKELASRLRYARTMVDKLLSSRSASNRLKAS
Prostaglandin G/H synthase 2 (Homo sapiens), sequence (P35354 whole entry): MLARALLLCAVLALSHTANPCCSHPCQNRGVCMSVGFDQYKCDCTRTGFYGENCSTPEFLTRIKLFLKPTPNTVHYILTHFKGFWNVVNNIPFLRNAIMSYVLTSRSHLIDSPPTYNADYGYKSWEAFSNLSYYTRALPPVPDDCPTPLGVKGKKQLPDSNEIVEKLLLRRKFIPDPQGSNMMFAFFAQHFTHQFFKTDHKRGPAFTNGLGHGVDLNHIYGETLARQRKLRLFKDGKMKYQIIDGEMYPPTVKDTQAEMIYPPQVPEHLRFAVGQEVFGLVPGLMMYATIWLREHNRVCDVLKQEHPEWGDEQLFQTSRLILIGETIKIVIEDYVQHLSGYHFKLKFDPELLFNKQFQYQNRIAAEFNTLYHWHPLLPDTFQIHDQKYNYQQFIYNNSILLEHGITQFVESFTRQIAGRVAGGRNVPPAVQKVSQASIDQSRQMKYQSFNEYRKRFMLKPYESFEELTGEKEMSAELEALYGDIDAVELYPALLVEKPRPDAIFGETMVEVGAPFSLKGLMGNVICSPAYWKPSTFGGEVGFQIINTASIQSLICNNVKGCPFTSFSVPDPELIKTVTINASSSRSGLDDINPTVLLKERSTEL
Serine/threonine-protein kinase Nek6 (Homo sapiens), sequence (Q9HC98 whole entry): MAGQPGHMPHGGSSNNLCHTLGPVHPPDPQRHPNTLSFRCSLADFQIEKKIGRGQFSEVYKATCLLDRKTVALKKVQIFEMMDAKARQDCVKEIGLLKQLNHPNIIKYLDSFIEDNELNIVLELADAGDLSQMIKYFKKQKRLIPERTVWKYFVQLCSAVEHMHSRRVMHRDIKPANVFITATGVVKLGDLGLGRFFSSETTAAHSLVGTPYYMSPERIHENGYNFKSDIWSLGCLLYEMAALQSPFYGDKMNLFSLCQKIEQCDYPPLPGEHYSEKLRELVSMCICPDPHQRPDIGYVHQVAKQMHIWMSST
5-hydroxytryptamine receptor 1D (Homo sapiens), sequence (P28221 whole entry): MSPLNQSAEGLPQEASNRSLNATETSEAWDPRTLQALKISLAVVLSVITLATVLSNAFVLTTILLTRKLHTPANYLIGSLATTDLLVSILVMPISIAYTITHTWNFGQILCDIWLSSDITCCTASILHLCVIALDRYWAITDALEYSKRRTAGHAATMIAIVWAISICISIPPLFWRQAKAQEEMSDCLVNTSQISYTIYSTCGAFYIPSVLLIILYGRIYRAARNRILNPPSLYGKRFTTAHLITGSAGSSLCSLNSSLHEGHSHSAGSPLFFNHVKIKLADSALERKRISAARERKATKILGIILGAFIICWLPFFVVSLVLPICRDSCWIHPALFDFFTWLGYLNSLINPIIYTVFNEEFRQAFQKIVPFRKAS

Which residual activity [1] does the source give for CCOCCn1cc(C(=O)Nc2ccc(-n3nc(-c4cccnc4)cc3C(F)(F)F)cn2)ccc1=O [BI 1935] here?
Its residual activity is 117%.

And the residual activity [2]?
The residual activity was 91%.

And the residual activity [3]?
Its residual activity is 108%.

What about the residual activity [4] of the same molecule?
Its residual activity is 111%.

And the residual activity [5]?
The residual activity was 106%.

What about the residual activity [6] of the same molecule?
The residual activity was 92%.

What about the residual activity [7] of the same molecule?
Its residual activity is 100%.

And the residual activity [8]?
The residual activity was 83%.

And the residual activity [9]?
Its residual activity is 100%.

And the residual activity [10]?
The residual activity was 84%.

And the residual activity [11]?
The residual activity was 100%.

And the residual activity [12]?
Its residual activity is 93%.

And the residual activity [13]?
The residual activity was 100%.

And the residual activity [14]?
The residual activity was 97%.

And the residual activity [15]?
Its residual activity is 93%.

And the residual activity [16]?
Its residual activity is 89%.

And the residual activity [17]?
Its residual activity is 100%.

And the residual activity [18]?
Its residual activity is 39%.

And the residual activity [19]?
Its residual activity is 100%.

What about the residual activity [20] of the same molecule?
The residual activity was 100%.

What about the residual activity [21] of the same molecule?
The residual activity was 91%.

What about the residual activity [22] of the same molecule?
Its residual activity is 92%.

And the residual activity [23]?
The residual activity was 90%.

And the residual activity [24]?
The residual activity was 100%.

And the residual activity [25]?
Its residual activity is 97%.

And the residual activity [26]?
The residual activity was 100%.

What about the residual activity [27] of the same molecule?
The residual activity was 100%.

And the residual activity [28]?
Its residual activity is 84%.

What about the residual activity [29] of the same molecule?
Its residual activity is 96%.

What about the residual activity [30] of the same molecule?
The residual activity was 96%.

What about the residual activity [31] of the same molecule?
The residual activity was 68%.

And the residual activity [32]?
Its residual activity is 100%.

What about the residual activity [33] of the same molecule?
The residual activity was 100%.

And the residual activity [34]?
The residual activity was 73%.

What about the residual activity [35] of the same molecule?
The residual activity was 81%.

And the residual activity [36]?
The residual activity was 100%.

And the residual activity [37]?
The residual activity was 74%.

What about the residual activity [38] of the same molecule?
The residual activity was 100%.

And the residual activity [39]?
The residual activity was 77%.

And the inhibition [40]?
The inhibition was 0.593%.

What about the inhibition [41] of the same molecule?
The inhibition was -4.17%.

And the inhibition [42]?
The inhibition was -5.62%.

And the inhibition [43]?
Its inhibition is 48.6%.
